In patent US20080139457A1, “Therapeutic compositions comprising chorionic gonadotropins and HMG CoA reductase inhibitors” (Virginia Commonwealth University, priority 2005, published 2008):
Entries after “also recorded” stand apart in the source; their conditions may differ.

Tests used:
PARP1 = PARP1 ADP-ribosylation status (immunoblot) in LNCaP cells; type: cell-based, human; details: AG1478 5 minutes after or 30 minutes before radiation; hCG 2 mU/ml, 4 Gy
Method: (§1) SDS-PAGE and Immunoblotting. The cells were plated at 5×10^5 cells/cm^2 and treated with drugs at the indicated concentrations and after the indicated time of treatment, lysed in whole-cell lysis buffer (0.5 M Tris-HCl, pH 6.8, 2% SDS, 10% glycerol, 1% β-mercaptoethanol, 0.02% bromophenol blue), and the samples were boiled for 30 minutes. […] All immunoblots were visualized by enhanced chemiluminescence (ECL).
(§2) LNCaP cells were cultured as described above.
as §2

LNCaP cells [1] = test: Cell survival (colony formation) assay in LNCaP cells; type: cell-based, human; details: AG1478 1 μM removed 96 h after hCG 2 mU/ml and 4 Gy; 28 days
Method: as §2
Apoptosis Assay. LNCaP cells were cultured as described above.
as §2

ERBB1 = test: Immunoblotting of ERBB1 phosphorylation in LNCaP cells; type: cell-based, human; details: for effect on hCG-induced ERBB1 Y1173 phosphorylation: AG1478 1 μM, pertussis toxin 300 ng/ml, PD184352 1 μM or GM6001 1 μM, 30 min after hCG 2 mU/ml
Method: as §1
(§3) (2) LNCaP cells were cultured as described above. 12 hours after plating, the cells were treated with vehicle (VEH, PBS) or pertussis toxin (300 ng/ml). 23 hours after plating cells were treated with vehicle (VEH, DMSO) or the ERBB1 inhibitor AG1478 (1 μM).
(3) LNCaP cells were cultured as described above.
(4) LNCaP cells were cultured as described above.

ERK½, JNK½, AKT (S473) = test: Immunoblotting of phosphorylation status of ERK½, JNK½, AKT in LNCaP cells; type: cell-based, human; details: for effect on hCG-induced ERK½ activation: pertussis toxin 300 ng/ml, AG1478 1 μM or GM6001 1 μM, 30 min after hCG 2 mU/ml
Method: SDS-PAGE and Immunoblotting. The cells were plated at 5×10^5 cells/cm^2 and treated with drugs at the indicated concentrations and after the indicated time of treatment, lysed in whole-cell lysis buffer (0.5 M Tris-HCl, pH 6.8, 2% SDS, 10% glycerol, 1% β-mercaptoethanol, 0.02% bromophenol blue), and the samples were boiled for 30 minutes. The boiled samples were loaded onto 10-14% SDS-PAGE and electrophoresis was run overnight. Proteins were electrophoretically transferred onto 0.22 μm nitrocellulose, and immunoblotted with various primary antibodies against different proteins. All immunoblots were visualized by enhanced chemiluminescence (ECL).
(§4) (1) LNCaP cells were cultured as described above. […] 0-6 hours after treatment, the cells were isolated, lysed in SDS PAGE sample buffer and equal protein concentrations subjected to SDS PAGE followed by immunoblotting to determine the phosphorylation status (activity status) of ERK½, JNK½, AKT (S473) and the expression level of ERK2 protein.
as §3
(4) LNCaP cells were cultured as described above. […] Thirty minutes after irradiation the cells were isolated, lysed in SDS PAGE sample buffer and equal protein concentrations subjected to SDS PAGE followed by immunoblotting to determine the phosphorylation status (activity status) of ERK½ and ERBB1 Y1068 and the expression levels of ERBB1 and ERK2 proteins.
as §4, with “LNCaP” for “(1) LNCaP”, “At the indicated times” for “0-6 hours”, “treatment (12-96 h),” for “treatment,”

LNCaP cells [2] = test: Apoptosis assay in LNCaP cells (trypan blue exclusion); type: cell-based, human; details: for effect of inhibitor on cell viability / hCG lethality: LY294002 10 μM or AG1478 1 μM 30 min before hCG 2 mU/ml
Method: Cell culture. Human prostate cells (PC3 and LCNaP) were purchased from the ATCC were cultured at 37° C. (5% (v/v CO2) in vitro using RPMI supplemented with 10% (v/v) fetal calf serum.
LNCaP cells were cultured as described above. […] The cells were isolated by trypsinization 96 hours after irradiation. The attached and floating cells were combined, and cell viability was determined by trypan blue exclusion assays using a light microscope (*p<0.05 value greater than corresponding vehicle/irradiated+vehicle value; n=3 per data point ±SEM from 3 studies).
LNCaP cells were cultured as described above. […] Caspase inhibitors were re-supplemented every 24 hours. After 96 hours of culture, cell viability numbers were determined MTT assays using a plate reader. The cells were isolated 96 hours after irradiation by trypsinization, the attached and floating cells combined, and cell viability determine by trypan blue exclusion assays using a light microscope.
(2) LNCaP cells were cultured as described above. […] Cells were isolated 96 h after irradiation by trypsinization, the attached and floating cells combined, and cell viability determine by trypan blue exclusion assays using a light microscope.
LNCaP cells were cultured as described above. […] Cells were isolated 96 hours after irradiation by trypsinization, the attached and floating cells combined, and cell viability determine by trypan blue exclusion assays using a light microscope. Cells were then lysed in SDS PAGE sample buffer and equal protein concentrations subjected to SDS PAGE followed by immunoblotting to determine the PARP1 ADP-ribosylation status (activity status) in the presence or absence of PJ-34.
LNCaP cells were cultured as described in Example 1. Twelve hours after plating the cells were transfected using Lipofectamine with either a scrambled siRNA (SCR) or with siRNA molecules to suppress PARP1 or AIF expression (siPARP; siAIF; 10 nM each). […] Cells were isolated 96 hours after irradiation by trypsinization, the attached and floating cells combined, and cell viability determine by trypan blue exclusion assays using a light microscope. Cells were then lysed in SDS PAGE sample buffer and equal protein concentrations subjected to SDS PAGE followed by immunoblotting to determine PARP1 and AIF expression in the presence or absence of siPARP and siAIF, siRNA molecules, respectively. PARP-induced cell death has been linked by some groups to the cytotoxic actions of AIF.
Apoptosis assay. LNCaP cells were cultured as described above. […] Cells were isolated by trypsinization 96 hours after irradiation, the attached and floating cells combined, and cell viability determine by trypan blue exclusion assays using a light microscope.
LNCaP cells were cultured as described above. […] Cells were isolated 96 hours after irradiation by trypsinization, the attached and floating cells combined, and cell viability determine by trypan blue exclusion assays using a light microscope.
LNCaP cells were cultured as described above. Twenty three hours after plating, cells were treated with either the control, vehicle (VEH, DMSO), or farnesyl pyrophosphate (FPP; 1 μM) or geranylgeranyl pyrophosphate (GGPP, 1 μM). […] In some cells the statin may enhance the effects of the chorionic gonadotropin by blocking farnesylation in which case the use of a farnesyl transferase inhibitor will be of further use.
Apoptosis assay in LNCaP Cells. (1) LNCaP cells were cultured as described above. Twelve hours after plating, cells were infected with either empty vector virus (CMV) or with viruses to express dominant negative AKT, dominant negative MEK1, dominant negative IkB, constitutively active AKT, and constitutively active MEK1 at a multiplicity of infection (m.o.i.) of 25. In other parallel plates of cells, 24 h after plating, cells were pretreated 30 minutes prior to any additional manipulation with either vehicle (VEH, DMSO) or a JNK½ inhibitory peptide (JNK-IP, 10 μM).

[3] = cited from earlier work
LNCaP cells [4] = test: MTT cell growth assay in LNCaP cells; type: cell-based, human; details: caspase inhibitor 50 μM, radiation 4 Gy, 96 h
Method: LNCaP cells were cultured as described above. […] Caspase inhibitors were re-supplemented every 24 hours. After 96 hours of culture, cell viability numbers were determined MTT assays using a plate reader.

COc1cc2ncnc(Nc3cccc(Cl)c3)c2cc1OC [AG1478]
effect on PARP activation by combined hCG and radiation (PARP1): abolished the profound activation of PARP caused by combined hCG and radiation treatment | effect of ERBB1 inhibition on cell killing by hCG and radiation (colony formation) (LNCaP cells [1]): prevented the greater than additive induction of cell killing caused by combined hCG and radiation exposure | effect on hCG-induced ERBB1 Y1173 phosphorylation (ERBB1): blocked | effect on hCG-induced ERK½ activation (ERK½, JNK½, AKT (S473)): blocked hCG-induced ERK½ activation | effect of inhibitor on cell viability / hCG lethality (LNCaP cells [2]; 96 h): did not significantly alter cell viability following hCG exposure

CC(C)=CCC/C(C)=C/CC/C(C)=C/CC/C(C)=C/COP(=O)(O)OP(=O)(O)O [GGPP, geranylgeranyl pyrophosphate]
effect on the lethal interaction between hCG and lovastatin (LNCaP cells [2]; FPP 1 μM or GGPP 1 μM, lovastatin 0.6 μM, hCG 2 mU/ml, 96 h): abolished the lethal interaction between hCG and lovastatin

COC(=O)[C@H](CC(C)C)NC(=O)c1ccc(NC[C@@H](N)CS)cc1-c1ccccc1 [GGTI-286]
cell killing with hCG when used in place of lovastatin (LNCaP cells [2]; GGTI-286 10 μM with hCG): Identical data LNCaP cell killing data for hCG and lovastatin exposure were obtained

CNC(=O)[C@H](Cc1c[nH]c2ccccc12)NC(=O)[C@@H](CC(=O)NO)CC(C)C [GM6001]
effect on hCG-induced ERBB1 Y1173 phosphorylation (ERBB1): abolisged ERBB1 Y1173 phosphorylation | effect on hCG-induced ERK½ activation (ERK½, JNK½, AKT (S473)): abolisged ERBB1 Y1173 phosphorylation and ERK½ activation

Cl.O=c1cc(N2CCOCC2)oc2c(-c3ccccc3)cccc12 [LY294002, 2-(4-Morpholinyl)-8-phenyl-4H-1-benzopyran-4-one hydrochloride]
effect of inhibitor on cell viability / hCG lethality (LNCaP cells [2]; 96 h): enhanced hCG lethality in LNCaP cells in a greater than additive fashion

O=C(NOCC1CC1)c1ccc(F)c(F)c1Nc1ccc(I)cc1Cl [PD184352]
effect on hCG-induced ERBB1 Y1173 phosphorylation (ERBB1): abolished | effect on radiation-induced ERBB1 Y1173 phosphorylation (ERBB1; PD184352 1 μM, 4 Gy, 30 min after irradiation): did not alter radiation-induced ERBB1 Y1173 phosphorylation

CN(C)CC(=O)Nc1ccc2[nH]c(=O)c3ccccc3c2c1 [PJ-34]
effect of PARP inhibition on potentiation of hCG lethality by radiation (LNCaP cells [2]; PJ-34 5 μM, hCG 2 mU/ml, 4 Gy, 96 h): abolished the potentiation of hCG lethality by radiation

CC[C@H](C)C(=O)O[C@H]1C[C@@H](C)C=C2C=C[C@H](C)[C@H](CC[C@@H]3C[C@@H](O)CC(=O)O3)[C@H]21 [lovastatin]
JNK½ activation, combined exposure (ERK½, JNK½, AKT (S473); lovastatin 0.6 μM with hCG 2 mU/ml, within 48 hours): promoted JNK½ activation | hCG induced ERK½ and AKT activation (ERK½, JNK½, AKT (S473); lovastatin 0.6 μM, hCG 2 mU/ml, within 48 hours): suppressed hCG induced ERK½ and AKT activation | basal AKT activity (ERK½, JNK½, AKT (S473); lovastatin 0.6 μM, within 48 hours): suppressed basal AKT activity; also recorded: reduced AKT activity | concentrations achievable in human plasma [3]: 100 to 600 nM | enhancement of the lethality of hCG (LNCaP cells [2]; lovastatin 0.1-0.6 μM 30 min before hCG 1 or 2 mU/ml, 96 h): enhanced the lethality of hCG to an extent greater than was observed using a PI3K inhibitor

pertussis toxin
effect on hCG-induced ERBB1 Y1173 phosphorylation (ERBB1): blocked | effect on hCG-induced ERK½ activation (ERK½, JNK½, AKT (S473)): suppressed hCG-induced activation of ERK½

zVAD
protection from toxicity of ionizing radiation in MTT assays (LNCaP cells [4]): partially protected cells from the toxicity of ionizing radiation | effect of caspase inhibitor on lethality of lovastatin and hCG combination (LNCaP cells [2]; LEHD 50 μM or zVAD 50 μM, lovastatin 0.6 μM, hCG 2 mU/ml, 96 h): reduced the lethality of the lovastatin and hCG combination | effect of caspase inhibitor on cell death by hCG and radiation (LNCaP cells [2]; caspase inhibitor 50 μM, hCG 2 mU/ml, 4 Gy, 96 h): modestly blunted
